Here are results for two compounds from ChEMBL document CHEMBL3994622, “Design and synthesis of new RAF kinase-inhibiting antiproliferative quinoline derivatives. Part 2: Diarylurea derivatives” (Eur J Med Chem, 2017).

What all share (type): functional
The test system of assay [1] is OVCAR-3. Kind of assay: Growth inhibition of human OVCAR3 cells assessed as cell growth at 0.5 uM incubated for 48 hrs by sulforhodamine B assay relative to control. The conditions noted are these: OVCAR-3, 48 h, read-out: Activity.
For the next assay, the system named is SK-MEL-2. The assay can be described thus: Growth inhibition of human SK-MEL-2 cells assessed as cell growth at 0.05 uM incubated for 48 hrs by sulforhodamine B assay relative to control. The conditions noted are these: SK-MEL-2, 48 h, read-out: Activity. (The SRB assay estimates cell density from bound dye.)
The test system of another assay is NCI-H322M. Kind of assay: Growth inhibition of human NCI-H322M cells assessed as cell growth at 50 uM incubated for 48 hrs by sulforhodamine B assay relative to control. Particulars: read-out: Activity.
Assay [2] has as its system NCI-H226. Kind of assay: Growth inhibition of human NCI-H226 cells assessed as cell growth at 0.5 uM incubated for 48 hrs by sulforhodamine B assay relative to control. The conditions noted are these: NCI-H226, 48 h, read-out: Activity.
For the next assay, the system named is Hs-578T. Kind of assay: Growth inhibition of human Hs 578T cells assessed as cell growth at 5 uM incubated for 48 hrs by sulforhodamine B assay relative to control. The conditions noted are these: read-out: Activity.
The next assay relates to UACC-62. The assay can be described thus: Growth inhibition of human UACC62 cells assessed as cell growth at 5 uM incubated for 48 hrs by sulforhodamine B assay relative to control. The conditions noted are these: UACC-62, 48 h, read-out: Activity.
In assay [3] the test system is LOX IMVI. The assay can be described thus: Growth inhibition of human LOXIMVI cells assessed as cell growth at 0.5 uM incubated for 48 hrs by sulforhodamine B assay relative to control. Particulars: read-out: Activity.
The test system of a further assay is MCF7. The assay can be described thus: Growth inhibition of human MCF7 cells assessed as cell growth at 50 uM incubated for 48 hrs by sulforhodamine B assay relative to control. Particulars: MCF7, 48 h, read-out: Activity.
In assay [4] the test system is COLO 205. Kind of assay: Growth inhibition of human COLO205 cells assessed as cell growth at 0.005 uM incubated for 48 hrs by sulforhodamine B assay relative to control. Particulars: COLO 205, 48 h, read-out: Activity.
The test system of assay [5] is SNB-19. The assay can be described thus: Growth inhibition of human SNB19 cells assessed as cell growth at 0.005 uM incubated for 48 hrs by sulforhodamine B assay relative to control. The conditions noted are these: SNB-19, 48 h, read-out: Activity.
The test system of assay [6] is SN12C. The assay can be described thus: Growth inhibition of human SN12C cells assessed as cell growth at 5 uM incubated for 48 hrs by sulforhodamine B assay relative to control. The conditions noted are these: read-out: Activity.
Assay [7] has as its system LOX IMVI. The assay can be described thus: Growth inhibition of human LOXIMVI cells assessed as cell growth at 50 uM incubated for 48 hrs by sulforhodamine B assay relative to control. The conditions noted are these: read-out: Activity.
The test system of assay [8] is UO-31. Kind of assay: Growth inhibition of human UO31 cells assessed as cell growth at 5 uM incubated for 48 hrs by sulforhodamine B assay relative to control. The conditions noted are these: UO-31, 48 h, read-out: Activity.
Assay [9] has as its system SN12C. Kind of assay: Growth inhibition of human SN12C cells assessed as cell growth at 0.05 uM incubated for 48 hrs by sulforhodamine B assay relative to control. The conditions noted are these: read-out: Activity.
For the next assay, the system named is SK-MEL-28. Kind of assay: Growth inhibition of human SK-MEL-28 cells assessed as cell growth at 0.05 uM incubated for 48 hrs by sulforhodamine B assay relative to control. Particulars: SK-MEL-28, 48 h, read-out: Activity.
The test system of a further assay is A549. Kind of assay: Growth inhibition of human A549/ATCC cells assessed as cell growth at 5 uM incubated for 48 hrs by sulforhodamine B assay relative to control. The conditions noted are these: A549, 48 h, read-out: Activity.
For assay [10], the system named is NCI-H226. Kind of assay: Growth inhibition of human NCI-H226 cells assessed as cell growth at 0.05 uM incubated for 48 hrs by sulforhodamine B assay relative to control. The conditions noted are these: NCI-H226, 48 h, read-out: Activity.
Another assay concerns M14. Kind of assay: Growth inhibition of human M14 cells assessed as cell growth at 5 uM incubated for 48 hrs by sulforhodamine B assay relative to control. Particulars: M14, 48 h, read-out: Activity.
Another assay relates to NCI-H522. Kind of assay: Growth inhibition of human NCI-H522 cells assessed as cell growth at 50 uM incubated for 48 hrs by sulforhodamine B assay relative to control. Particulars: NCI-H522, 48 h, read-out: Activity.
In assay [11] the test system is CAKI-1. Kind of assay: Growth inhibition of human Caki1 cells assessed as cell growth at 50 uM incubated for 48 hrs by sulforhodamine B assay relative to control. The conditions noted are these: CAKI-1, 48 h, read-out: Activity.
The subject of assay [12] is OVCAR-3. Kind of assay: Growth inhibition of human OVCAR3 cells assessed as cell growth at 0.005 uM incubated for 48 hrs by sulforhodamine B assay relative to control. Particulars: OVCAR-3, 48 h, read-out: Activity.
In the next assay the test system is OVCAR-4. The assay can be described thus: Growth inhibition of human OVCAR4 cells assessed as cell growth at 0.005 uM incubated for 48 hrs by sulforhodamine B assay relative to control. The conditions noted are these: OVCAR-4, 48 h, read-out: Activity.
A further assay relates to KM12. The assay can be described thus: Growth inhibition of human KM12 cells assessed as cell growth at 0.5 uM incubated for 48 hrs by sulforhodamine B assay relative to control. The conditions noted are these: KM12, 48 h, read-out: Activity.
A further assay deals with HCT-15. Kind of assay: Growth inhibition of human HCT15 cells assessed as cell growth at 50 uM incubated for 48 hrs by sulforhodamine B assay relative to control. The conditions noted are these: HCT-15, 48 h, read-out: Activity.
The next assay relates to RXF 393. Kind of assay: Growth inhibition of human RXF393 cells assessed as cell growth at 0.05 uM incubated for 48 hrs by sulforhodamine B assay relative to control. The conditions noted are these: RXF 393, 48 h, read-out: Activity.
The subject of assay [13] is CAKI-1. Kind of assay: Growth inhibition of human Caki1 cells assessed as cell growth at 0.05 uM incubated for 48 hrs by sulforhodamine B assay relative to control. Particulars: CAKI-1, 48 h, read-out: Activity.
The test system of assay [14] is COLO 205. Kind of assay: Growth inhibition of human COLO205 cells assessed as cell growth at 0.05 uM incubated for 48 hrs by sulforhodamine B assay relative to control. The conditions noted are these: COLO 205, 48 h, read-out: Activity.
Another assay relates to ACHN. Kind of assay: Growth inhibition of human ACHN cells assessed as cell growth at 0.005 uM incubated for 48 hrs by sulforhodamine B assay relative to control. The conditions noted are these: read-out: Activity.
The test system of another assay is DU-145. The assay can be described thus: Growth inhibition of human DU145 cells assessed as cell growth at 0.5 uM incubated for 48 hrs by sulforhodamine B assay relative to control. Particulars: DU-145, 48 h, read-out: Activity.
The test system of assay [15] is SNB-19. The assay can be described thus: Growth inhibition of human SNB19 cells assessed as cell growth at 0.5 uM incubated for 48 hrs by sulforhodamine B assay relative to control. Particulars: SNB-19, 48 h, read-out: Activity.
For another assay, the system named is K562. The assay can be described thus: Growth inhibition of human K562 cells assessed as cell growth at 0.005 uM incubated for 48 hrs by sulforhodamine B assay relative to control. Particulars: K562, 48 h, read-out: Activity.
Another assay concerns MDA-MB-435. Kind of assay: Growth inhibition of human MDA-MB-435 cells assessed as cell growth at 0.005 uM incubated for 48 hrs by sulforhodamine B assay relative to control. The conditions noted are these: MDA-MB-435, 48 h, read-out: Activity.
In assay [16] the test system is CAKI-1. Kind of assay: Growth inhibition of human Caki1 cells assessed as cell growth at 0.5 uM incubated for 48 hrs by sulforhodamine B assay relative to control. The conditions noted are these: CAKI-1, 48 h, read-out: Activity.
Assay [17] relates to UO-31. Kind of assay: Growth inhibition of human UO31 cells assessed as cell growth at 0.05 uM incubated for 48 hrs by sulforhodamine B assay relative to control. Particulars: UO-31, 48 h, read-out: Activity.
The test system of the next assay is EKVX. Kind of assay: Growth inhibition of human EKVX cells assessed as cell growth at 0.003 uM incubated for 48 hrs by sulforhodamine B assay relative to control. The conditions noted are these: read-out: Activity.

Structures are written as SMILES.

For `COc1cc2cc(Oc3ccc(NC(=O)Nc4cccc(C(F)(F)F)c4)cc3)c(C)nc2cc1OC`, the growth at 0.5 µM in the assay with OVCAR-3 [1] came to 105%; in the assay on NCI-H226 [2], 108%; with LOX IMVI [3], 97%; with KM12, 88%; in the assay with DU-145, 104%; in the assay on SNB-19 [15], 96%. Besides, the growth at 0.5 µM in the assay with CAKI-1 [16] came out at 91%. Besides, the growth at 0.05 µM with SK-MEL-2 came to 104%; in the assay with SN12C [9], 97%; in the assay on SK-MEL-28 it was 98%; with NCI-H226 [10], 104%; in the assay on RXF 393 it was 105%; in the assay with CAKI-1 [13] it was 93%. In addition, the values for the growth at 0.05 µM in the assay on COLO 205 [14] and in the assay on UO-31 [17] were 94% and 91%, respectively. The growth at 50 µM was -29% in the assay with NCI-H322M; -89% in the assay on MCF7; -99% in the assay on LOX IMVI [7]; -61% in the assay with NCI-H522; -51% in the assay with CAKI-1 [11]; -10% in the assay with HCT-15. Also, the growth at 5 µM with Hs-578T was -8%; in the assay with UACC-62, 22%; in the assay on SN12C [6], 22%; in the assay with UO-31 [8], 12%; in the assay on A549 it was 9%; in the assay on M14, 14%. The growth at 0.005 µM in the assay on COLO 205 [4] was found to be 97%; in the assay with SNB-19 [5] it was 92%; in the assay on OVCAR-3 [12], 101%; in the assay with OVCAR-4, 92%; in the assay with ACHN it was 97%; in the assay with K562, 102%. In addition, in the assay with MDA-MB-435, the growth at 0.005 µM was determined as 95%.
With `COc1cc2cc(Oc3ccc(NC(=O)Nc4ccc(Cl)c(C(F)(F)F)c4)cc3)c(C)nc2cc1OC`, in the assay on EKVX, the growth at 0.003 µM was 103%.
